{"source": "paper PMC3132063", "about": "(2011)", "biological_target": "Janus kinase 2 (JAK2) (Homo sapiens, UniProt O60674)", "sequence (O60674 whole entry)": "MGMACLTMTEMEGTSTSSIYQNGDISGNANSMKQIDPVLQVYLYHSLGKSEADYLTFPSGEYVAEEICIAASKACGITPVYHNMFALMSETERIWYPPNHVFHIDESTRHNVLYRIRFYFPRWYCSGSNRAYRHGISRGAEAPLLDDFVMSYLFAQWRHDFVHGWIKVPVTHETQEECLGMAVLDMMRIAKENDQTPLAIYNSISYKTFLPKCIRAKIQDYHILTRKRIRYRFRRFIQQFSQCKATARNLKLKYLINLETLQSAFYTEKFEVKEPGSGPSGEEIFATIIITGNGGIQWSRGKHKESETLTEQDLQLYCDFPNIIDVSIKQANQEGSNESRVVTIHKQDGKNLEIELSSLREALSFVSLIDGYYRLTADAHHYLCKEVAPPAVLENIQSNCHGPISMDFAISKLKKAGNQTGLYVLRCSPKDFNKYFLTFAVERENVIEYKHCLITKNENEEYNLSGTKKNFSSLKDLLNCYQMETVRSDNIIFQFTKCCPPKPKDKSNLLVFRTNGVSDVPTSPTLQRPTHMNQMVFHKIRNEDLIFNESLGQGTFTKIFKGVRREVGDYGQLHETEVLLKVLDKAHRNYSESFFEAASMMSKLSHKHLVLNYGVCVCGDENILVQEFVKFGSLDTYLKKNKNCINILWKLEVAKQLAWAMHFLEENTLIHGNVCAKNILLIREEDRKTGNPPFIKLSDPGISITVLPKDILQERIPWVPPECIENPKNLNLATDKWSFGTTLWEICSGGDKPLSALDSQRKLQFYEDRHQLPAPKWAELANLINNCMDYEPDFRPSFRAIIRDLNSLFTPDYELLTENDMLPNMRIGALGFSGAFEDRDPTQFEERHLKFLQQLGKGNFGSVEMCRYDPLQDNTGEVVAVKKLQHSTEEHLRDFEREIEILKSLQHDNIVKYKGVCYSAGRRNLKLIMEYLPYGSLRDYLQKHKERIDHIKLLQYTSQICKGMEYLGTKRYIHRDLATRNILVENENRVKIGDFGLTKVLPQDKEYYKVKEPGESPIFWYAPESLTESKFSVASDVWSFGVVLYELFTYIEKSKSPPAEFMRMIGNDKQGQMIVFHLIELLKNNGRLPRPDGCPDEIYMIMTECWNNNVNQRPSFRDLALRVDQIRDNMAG"}
{"smiles": "CN1CCN(c2cccc(Nc3nc4c(-c5ccc(S(C)(=O)=O)cc5)cccn4n3)c2)CC1", "note": "[CEP-33779]", "values": [{"measurement": "IC50", "result": "1.8 ± 0.6", "unit": "nM"}]}
